These results are taken from US20240366555A1, “SELECTIVE MTORC2 INHIBITOR AND USES THEREOF” (ALIAD BIOPHARMA, priority 2021, published 2024).

Test [1] has as its system mTORC2 signaling (Fox03a location). In words: Fox03a intracellular location by immunofluorescent staining in A549. Type of test: cell-based, human. To be noted: A549 cells, treated for 3 hours; FIG. 7c. The source says: mTORC2 activates SGK3, and SGK3 phosphorylates Fox03a, allowing Fox03a to remain in the cytoplasm. When mTORC2 is inhibited, Fox03a is dephosphorylated and translocated to the nucleus, and in the nucleus, it binds to FHRE located in a gene promoter to induce gene expression. Therefore, the change in the intracellular location of Fox03a and FHRE dependent gene expression become indicators for evaluating mTORC2 activity. In order to evaluate the effect of norathyriol on the mTORC2 activity, norathyriol was treated to A549, and then the change in the intracellular location of Fox03a was investigated by immunofluorescent staining.
Specifically, the A549 cells of 1×10^5 were seeded in a confocal dish coated with 35 mm collagen and cultured for 1 day. After treating norathyriol, the cells were fixed with 4% paraformaldehyde at 4° C. for 15 minutes. After treating PBS containing 0.5% Triton X-100 (PBS-T) at a room temperature for 5 minutes for permeabilization, PBS containing 5% normal goat serum and 1% gelatin was treated at a room temperature for 30 minutes for blocking. The Fox03a antibody diluted in 1% BSA was treated at a room temperature for 1 hour. After washing the culture dish with PBS-T, an FITC conjugated anti-rabbit secondary antibody diluted in 1% BSA was treated at a room temperature for 50 minutes. […]

The target of a further test is T1, mTORC1 (Homo sapiens, UniProt P42345).
T1 construct: mTORC1 was isolated by co-immunoprecipitation using Flag antibody; made in house; host or cells: HEK 293T transfected with Flag-Raptor
In words: In vitro mTORC1 kinase assay (GST-S6K Thr389 phosphorylation, immunoblot). Type of test: biochemical. The procedure: In order to investigate the effect on mTORC1 activity of norathyriol, in vitro mTORC1 kinase assay was performed. After introducing Flag-Raptor into a human cell line 293T, mTORC1 was isolated by co-immunoprecipitation using Flag antibody. In addition, the activity of the isolated mTORC1 complex was evaluated by measuring phosphorylation of GST-S6K Thr389, which is a selective substrate of mTORC1, by immunoblot analysis. In the control group in which Flag-Raptor was not introduced, GST-S6K Thr389 phosphorylation was almost not measured. […] Therefore, it was judged that GST-S6K Thr389 phosphorylation measured in the in vitro mTORC1 kinase assay was generated by mTORC1. In order to evaluate the inhibitory effect of norathyriol on mTORC1 activity, norathyriol was pretreated for 15 minutes, and then in vitro mTORC1 kinase assay was carried out.
More specifically, the HEK 293T cells were cultured in a DMEM culture medium in which 10% heat inactivated FBS+1× Glutamax was added. 8×10^5 HEK 293T cells were seeded in a 100 mm culture dish, and then they were cultured for 1 day. After mixing 42 μl Lipofectamine, 21 μl plus reagent, and 21 μg Flag-Raptor plasmid DNA to 1 ml OPTI-MEM, it was shaken at a room temperature for 25 minutes to prepare a transfection DNA mixture. The transfection DNA mixture was slowly treated on the cells drop by drop, and after culturing for 5 hours, the culture medium was replaced with a new culture medium. […] The protein concentration of the cell lysate was determined with BCA protein assay kit (Thermo Fisher Scientific). […] Thr389 phosphorylation of GST-S6K1, which is a substrate of mTORC1, was measured by performing immunoblot analysis using phospho Thr389 p70 S6 kinase antibody (#9205S, Cell Signaling) and GST antibody (#A190-122A, Bethyl Laboratories). […]
In general terms: Immunoblotting shows a protein as a band on a membrane.

Another test deals with Arc protein expression. In words: mGluR-dependent Arc protein expression in cerebral neurons. Type of test: cell-based. The procedure: When mGluR is activated in dendritic spines of cerebral neurons, Arc protein is synthesized, and the Arc protein promotes endocytosis of an AMPA receptor to form LTD.
Specifically, DHPG was treated to cerebral neurons, which were obtained by primary culture of white mouse embryo E16 cerebral regions and differentiated for […] (DIV21), for 5 minutes or 10 minutes to activate mGluR. As an Arc antibody, Arc protein (green) and PSD95 (red), which is a marker antibody of postsynaptic density of a synapse, were under
After double immunofluorescent staining of Arc protein with an Arc antidody (green) and PSD95, a marker of postsynaptic density of synapse, with an PSD95 antibody (red), Arc expression in dendritic spines was quantified as the number of Arc+PSD95 double stained puncta per 20 μm neurite length by confocal scanning microscopic scanning.

Usually IC50 stands for the point on the concentration scale where inhibition reaches its midpoint.

As to `O=c1c2cc(O)c(O)cc2oc2cc(O)cc(O)c12` [norathyriol, 1,3,6,7-tetrahydroxy-9H-xanthen-9-one], the “intracellular location of Fox03a” value in test [1] is listed as “moved to the nucleus”. Moreover, at mTORC1 (20 μM, 40 μM and 80 μM, FIG. 6c), the “GST-S6K Thr389 phosphorylation” value is “not reduced at a significant level”. In addition, the IC50 against mTORC1 (in vitro mTORC1 kinase assay) is greater than 80 µM. Moreover, the “increase of Arc protein synthesis (immunoblot of cell lysate)” value with Arc protein expression (DHPG-induced, FIG. 12b) is recorded as “inhibited in a dose-dependent manner”. Further, in the test with Arc protein expression (pretreated for 2 hours before treating DHPG, FIG. 12a), the “Arc synthesis in dendritic spines (immunofluorescent staining)” value is recorded as “the increase of Arc synthesis by DHPG was not found”.
